Measured values as given in US20190255086A1, “Compositions and Methods for Treating an Infection” (CMPD Licensing, LLC, priority 2015, published 2019).

Assays:
Streptococcus agalactiae = experiment: Expected efficacy of anti-bacterial agents against various bacteria (Tables 5 and 6); conditions: Gram: pos
Neisseria gonorrhoeae = experiment: as above; conditions: Gram: neg
Chlamydia psittaci = conditions: expected efficacy; Chlamydia psittaci; Gram: n/a
Shigella flexneri = experiment: Expected efficacy of anti-bacterial agents against various bacteria (Tables 5 and 6); conditions: Gram: neg
Klebsiella oxytoca = experiment: as above; conditions: Gram: neg
Corynebacterium jeikeium = experiment: as above; conditions: Gram: pos
Enterococcus faecalis = experiment: as above; conditions: Gram: pos
Moraxella catarrhalis = experiment: as above; conditions: Gram: neg
Rickettsiae = conditions: expected efficacy; Rickettsiae; Gram: neg
[1] = system: Klebsiella (Calymmatobacterium) granulomatis; experiment: Expected efficacy of anti-bacterial agents against various bacteria (Tables 5 and 6); conditions: Gram: neg
Proteus mirabilis = experiment: as above; conditions: Gram: neg
Citrobacter freundii = experiment: as above; conditions: Gram: neg
Salmonella typhi = experiment: as above; conditions: Gram: neg
[2] = system: Staphylococcus aureus (MSSA); experiment: as above; conditions: Gram: pos
[3] = system: Corynebacterium urealyticum; experiment: as above; conditions: Gram: pos
Shigella boydii = experiment: as above; conditions: Gram: neg
Campylobacter jejuni = experiment: as above; conditions: Gram: neg
Shigella dysenteriae = experiment: as above; conditions: Gram: neg
Escherichia coli = experiment: as above; conditions: Gram: neg
Morganella morganii = experiment: as above; conditions: Gram: neg
[4] = system: Haemophilus parainfluenzae; experiment: as above; conditions: Gram: neg
Yersinia pestis = conditions: expected efficacy; Yersinia pestis; Gram: neg
Klebsiella pneumoniae = experiment: Expected efficacy of anti-bacterial agents against various bacteria (Tables 5 and 6); conditions: Gram: neg
Proteus vulgaris = experiment: as above; conditions: Gram: neg
Acinetobacter baumannii = experiment: as above; conditions: Gram: neg
Pseudomonas aeruginosa = experiment: as above; conditions: Gram: neg
Chlamydia pneumoniae = experiment: as above; conditions: Gram: n/a
Streptococcus pyogenes = experiment: as above; conditions: Gram: pos
Haemophilus ducreyi = experiment: as above; conditions: Gram: neg
Clostridium perfringens = conditions: expected efficacy; Clostridium perfringens; Gram: anaer
Serratia marcescens = experiment: Expected efficacy of anti-bacterial agents against various bacteria (Tables 5 and 6); conditions: Gram: neg
Neisseria meningitidis = experiment: as above; conditions: Gram: neg
Diphtheroids = experiment: as above; conditions: Gram: pos
Mycoplasma pneumoniae = experiment: as above; conditions: Gram: n/a
Streptococcus pneumoniae = experiment: as above; conditions: Gram: pos
Clostridium difficile = experiment: as above; conditions: Gram: anaer
Enterobacter sakazakii = experiment: as above; conditions: Gram: neg
Peptostreptococcus = experiment: as above; conditions: Gram: pos
Legionella pneumophila = conditions: expected efficacy; Legionella pneumophila; Gram: neg
[5] = system: Methicillin resistant staph aureus (MRSA); experiment: Expected efficacy of anti-bacterial agents against various bacteria (Tables 5 and 6); conditions: Gram: pos
Acinetobacter lwoffii = experiment: as above; conditions: Gram: neg
Haemophilus influenzae = experiment: as above; conditions: Gram: neg
Enterobacter aerogenes = experiment: as above; conditions: Gram: neg
Chlamydia trachomatis = experiment: as above; conditions: Gram: n/a
[6] = system: Staphylococcus epidermidis; experiment: as above; conditions: Gram: pos
Enterobacter cloacae = experiment: as above; conditions: Gram: neg
Providencia rettgeri = experiment: as above; conditions: Gram: neg
Citrobacter diversus = experiment: as above; conditions: Gram: neg
Shigella sonnei = experiment: as above; conditions: Gram: neg
Francisella tularensis = conditions: expected efficacy; Francisella tularensis; Gram: neg
Bacteroides fragilis = experiment: Expected efficacy of anti-bacterial agents against various bacteria (Tables 5 and 6); conditions: Gram: anaer
Vibrio cholerae = experiment: as above; conditions: Gram: neg
[7] = system: Acinetobacter calcoaceticus; experiment: as above; conditions: Gram: neg
[8] = system: Viridans group streptococci; experiment: as above; conditions: Gram: pos
Bordetella pertussis = experiment: as above; conditions: Gram: neg
Providencia stuartii = experiment: as above; conditions: Gram: neg
Enterococcus faecium = experiment: as above; conditions: Gram: pos
Brucella species = conditions: expected efficacy; Brucella species; Gram: neg
Pseudomonas fluorescens = experiment: Expected efficacy of anti-bacterial agents against various bacteria (Tables 5 and 6); conditions: Gram: neg

`CO/N=C(\C(=O)N[C@@H]1C(=O)N2C(C(=O)O)=C(CSc3nc(=O)c(=O)[nH]n3C)CS[C@H]12)c1csc(N)n1` [Ceftriaxone] was tested, and the “Efficacy of various antibiotic agents” value (Streptococcus agalactiae) was “yes”, the “Efficacy of various antibiotic agents” value (Neisseria gonorrhoeae) was “yes” and the “Efficacy of various antibiotic agents” value (Chlamydia psittaci) was “no”. The “Efficacy of various antibiotic agents” value (Shigella flexneri) was “yes”, the “Efficacy of various antibiotic agents” value (Klebsiella oxytoca) was “yes” and the “Efficacy of various antibiotic agents” value (Corynebacterium jeikeium) was “no”. For the same compound, the “Efficacy of various antibiotic agents” value (Enterococcus faecalis) was “no”, the “Efficacy of various antibiotic agents” value (Moraxella catarrhalis) was “yes” and the “Efficacy of various antibiotic agents” value (Rickettsiae) was “no”. For the same compound, the “Efficacy of various antibiotic agents” value [1] was “yes”, the “Efficacy of various antibiotic agents” value (Proteus mirabilis) was “yes” and the “Efficacy of various antibiotic agents” value (Citrobacter freundii) was “yes”. For the same compound, the “Efficacy of various antibiotic agents” value (Salmonella typhi) was “yes”, the “Efficacy of various antibiotic agents” value [2] was “yes” and the “Efficacy of various antibiotic agents” value [3] was “no”. For the same compound, the “Efficacy of various antibiotic agents” value (Shigella boydii) was “yes”, the “Efficacy of various antibiotic agents” value (Campylobacter jejuni) was “no” and the “Efficacy of various antibiotic agents” value (Shigella dysenteriae) was “yes”. For the same compound, the “Efficacy of various antibiotic agents” value (Escherichia coli) was “yes”, the “Efficacy of various antibiotic agents” value (Morganella morganii) was “yes” and the “Efficacy of various antibiotic agents” value [4] was “yes”. The “Efficacy of various antibiotic agents” value (Yersinia pestis) was “no”, the “Efficacy of various antibiotic agents” value (Klebsiella pneumoniae) was “yes” and the “Efficacy of various antibiotic agents” value (Proteus vulgaris) was “yes”. The “Efficacy of various antibiotic agents” value (Acinetobacter baumannii) was “no”, the “Efficacy of various antibiotic agents” value (Pseudomonas aeruginosa) was “no” and the “Efficacy of various antibiotic agents” value (Chlamydia pneumoniae) was “no”. For the same compound, the “Efficacy of various antibiotic agents” value (Streptococcus pyogenes) was “yes”, the “Efficacy of various antibiotic agents” value (Haemophilus ducreyi) was “yes” and the “Efficacy of various antibiotic agents” value (Clostridium perfringens) was “yes”. For the same compound, the “Efficacy of various antibiotic agents” value (Serratia marcescens) was “yes”, the “Efficacy of various antibiotic agents” value (Neisseria meningitidis) was “yes” and the “Efficacy of various antibiotic agents” value (Diphtheroids) was “no”. The “Efficacy of various antibiotic agents” value (Mycoplasma pneumoniae) was “no”, the “Efficacy of various antibiotic agents” value (Streptococcus pneumoniae) was “yes” and the “Efficacy of various antibiotic agents” value (Clostridium difficile) was “no”. The “Efficacy of various antibiotic agents” value (Enterobacter sakazakii) was “yes”, the “Efficacy of various antibiotic agents” value (Peptostreptococcus) was “yes” and the “Efficacy of various antibiotic agents” value (Legionella pneumophila) was “no”. The “Efficacy of various antibiotic agents” value [5] was “no”, the “Efficacy of various antibiotic agents” value (Acinetobacter lwoffii) was “no” and the “Efficacy of various antibiotic agents” value (Haemophilus influenzae) was “yes”. The “Efficacy of various antibiotic agents” value (Enterobacter aerogenes) was “yes”, the “Efficacy of various antibiotic agents” value (Chlamydia trachomatis) was “no” and the “Efficacy of various antibiotic agents” value [6] was “yes”. The “Efficacy of various antibiotic agents” value (Enterobacter cloacae) was “yes”, the “Efficacy of various antibiotic agents” value (Providencia rettgeri) was “yes” and the “Efficacy of various antibiotic agents” value (Citrobacter diversus) was “yes”. For the same compound, the “Efficacy of various antibiotic agents” value (Shigella sonnei) was “yes”, the “Efficacy of various antibiotic agents” value (Francisella tularensis) was “no” and the “Efficacy of various antibiotic agents” value (Bacteroides fragilis) was “yes”. For the same compound, the “Efficacy of various antibiotic agents” value (Vibrio cholerae) was “no”, the “Efficacy of various antibiotic agents” value [7] was “no” and the “Efficacy of various antibiotic agents” value [8] was “yes”. For the same compound, the “Efficacy of various antibiotic agents” value (Bordetella pertussis) was “no”, the “Efficacy of various antibiotic agents” value (Providencia stuartii) was “yes” and the “Efficacy of various antibiotic agents” value (Enterococcus faecium) was “no”.
Colistimethate was tested, and the “Efficacy of various antibiotic agents” value (Streptococcus agalactiae) was “no”, the “Efficacy of various antibiotic agents” value (Neisseria gonorrhoeae) was “no” and the “Efficacy of various antibiotic agents” value (Chlamydia psittaci) was “no”. For the same compound, the “Efficacy of various antibiotic agents” value (Klebsiella oxytoca) was “yes”, the “Efficacy of various antibiotic agents” value (Corynebacterium jeikeium) was “no” and the “Efficacy of various antibiotic agents” value (Enterococcus faecalis) was “no”. The “Efficacy of various antibiotic agents” value (Moraxella catarrhalis) was “no”, the “Efficacy of various antibiotic agents” value [1] was “yes” and the “Efficacy of various antibiotic agents” value (Proteus mirabilis) was “no”. The “Efficacy of various antibiotic agents” value [2] was “no”, the “Efficacy of various antibiotic agents” value [3] was “no” and the “Efficacy of various antibiotic agents” value (Escherichia coli) was “yes”. The “Efficacy of various antibiotic agents” value [4] was “no”, the “Efficacy of various antibiotic agents” value (Klebsiella pneumoniae) was “yes” and the “Efficacy of various antibiotic agents” value (Proteus vulgaris) was “no”. The “Efficacy of various antibiotic agents” value (Pseudomonas aeruginosa) was “yes”, the “Efficacy of various antibiotic agents” value (Chlamydia pneumoniae) was “no” and the “Efficacy of various antibiotic agents” value (Streptococcus pyogenes) was “no”. For the same compound, the “Efficacy of various antibiotic agents” value (Serratia marcescens) was “no”, the “Efficacy of various antibiotic agents” value (Neisseria meningitidis) was “no” and the “Efficacy of various antibiotic agents” value (Diphtheroids) was “no”. The “Efficacy of various antibiotic agents” value (Mycoplasma pneumoniae) was “no”, the “Efficacy of various antibiotic agents” value (Streptococcus pneumoniae) was “no” and the “Efficacy of various antibiotic agents” value (Clostridium difficile) was “no”. For the same compound, the “Efficacy of various antibiotic agents” value (Enterobacter sakazakii) was “yes”, the “Efficacy of various antibiotic agents” value (Brucella species) was “no” and the “Efficacy of various antibiotic agents” value (Peptostreptococcus) was “no”. The “Efficacy of various antibiotic agents” value (Legionella pneumophila) was “no”, the “Efficacy of various antibiotic agents” value [5] was “no” and the “Efficacy of various antibiotic agents” value (Enterobacter aerogenes) was “yes”. For the same compound, the “Efficacy of various antibiotic agents” value (Pseudomonas fluorescens) was “yes”, the “Efficacy of various antibiotic agents” value (Chlamydia trachomatis) was “no” and the “Efficacy of various antibiotic agents” value [6] was “no”. The “Efficacy of various antibiotic agents” value (Enterobacter cloacae) was “yes”, the “Efficacy of various antibiotic agents” value (Providencia rettgeri) was “no” and the “Efficacy of various antibiotic agents” value (Bacteroides fragilis) was “no”. For the same compound, the “Efficacy of various antibiotic agents” value (Vibrio cholerae) was “no”, the “Efficacy of various antibiotic agents” value [8] was “no” and the “Efficacy of various antibiotic agents” value (Bordetella pertussis) was “no”. The “Efficacy of various antibiotic agents” value (Providencia stuartii) was “no” and the “Efficacy of various antibiotic agents” value (Enterococcus faecium) was “no”.
